The values that follow are results of earlier work, collected in patent US20070021605A1, “PROCESS AND COMPOSITION FOR MAKING OLANZAPINE FORM I” (priority 2005, published 2007).

SMILES strings stand for the structures.

The conditions of the data set: water, pH 6.8; free base.

Take `Cc1cc2c(s1)Nc1ccccc1N=C2N1CCN(C)CC1` [Olanzapine]: the solubility entry is on record as “about 0.02 mg/ml”.
